Experimental data as given in patent publication US20110288154A1, “RNA Interference Mediated Inhibition of Epithelial Sodium Channel (ENaC) Gene Expression Using Short Interfering Nucleic Acid (siNA)” (MERCK & CO., INC., priority 2008, published 2011).
[invAb] = inverted abasic unit; m = 2'-O-methyl; r = 2'-OH (RNA); f = 2'-fluoro

Tested on: ENaCα mRNA
Assay: Screening of ENaCα siNAs in human A549 cells (quantitative RT-PCR)
Assay type: cell-based
Design: Percent Reduction of the ENaCα mRNA relative to a non-targeting control siNA (NTC): concentration or dose not given beside the values
Conditions: human A549 cells, n = 3; for Avg ENaCα Expression: 25 nM siNA with Lipofectamine 2000, harvested 24 hours post-transfection; for Mean (level of ENaCα expression normalized to the level of GAPDH) / Percent Reduction of the ENaCα mRNA relative to a non-targeting control siNA (NTC) / Avg GAPDH Expression: 24 hours post-transfection; for Avg GAPDH Expression: housekeeping gene used for normalisation
Description: siNA constructs (Table 1b) may be tested for efficacy in reducing ENaC RNA expression in, for example, A549 human lung carcinoma cells. A549 (human; ATCC cat# CCL-185) cells were cultured at 37° C. in the presence of 5% CO2 and grown in Ham's F12K medium with 2 mM L-glutamine adjusted to contain 1.5 g/L sodium bicarbonate and supplemented with fetal bovine serum at a final concentration of 10% and 100 U/mL penicillin. The A549 cells were plated approximately 24 hours before transfection in 96-well plates at 7,500 cells/well, 100 μl/well. After 24 hours complexes containing siNA and Lipofectamine 2000 (Invitrogen) were created as follows: a solution of Lipofectamine 2000 in OPTI-MEM was prepared containing Lipofectamine 2000 at a final concentration of 14 μg/ml. In parallel, solutions of the siNAs were prepared in OPTI-MEM at a final concentration of 150 nM. After both solutions were incubated at 20° C. for 20 minutes an equal volume of the siNA solutions and the Lipofectamine 2000 solution were added together for each of the siNAs. The resultant solution has the siNAs at a final concentration of 75 nM and Lipofectamine 2000 at a final concentration of 7 μg/ml. This solution was incubated at 20° C. for 20 minutes. After incubation 50 μl of the solution were added to each of the wells (in triplicate). The final concentration of siNA in each well was 25 nM and the final concentration of Lipofectamine 2000 in each well was 2.33 μg/ml. […] Dose response curves were determined in a similar manner with each concentration being done in triplicate and maintaining a constant amount of Lipofectamine 2000 in each transfection.
RNA was extracted from 96-well plates using the Invitek Invisorb RNA Cell HTS 96 Kit/C (Cat# 70619000) with a slightly modified protocol. The details of the protocol for isolating RNA from each plate are described as follows:
1) Aspirate media with rake 2) Add 150 ul/well Lysis buffer 3) Place on plate shaker for 1 minute 4) Place DNA binding plate on top of 0.5 ml collection plate 5) Pipette 190 ul up and down twice and add to DNA binding plate 6) Cover plate 7) Centrifuge plates 4 minutes at 4000 RPM 8) Discard DNA binding plate 9) Place the RNA binding plate on top of 2 ml collection plate 10) Add 150 ul/well of Binding Buffer R to 0.5 ml collection plate 11) Move contents of 0.5 ml collection plate to RNA binding plate 12) Let incubate for 1 minute 13) Centrifuge plates 4 minutes at 4000 RPM 14) Add 600 ul/well of Wash Buffer R1 to RNA binding plate 15) Centrifuge plates 4 minutes at 4000 RPM 16) Dump wash buffer from 2 ml collection plate 17) Add 400 ul/well of Wash Buffer R2 to RNA binding plate 18) Centrifuge plates 4 minutes at 4000 RPM 19) Add 400 ul/well of Wash Buffer R2 to RNA binding plate 20) Centrifuge plates 10 minutes at 4000 RPM 21) Dump wash buffer from 2 ml collection plate 22) Centrifuge plates 3 minutes at 4000 RPM 23) Discard 2 ml collection plate and place RNA binding plate on to microtiter plate 24) Add 100 ul/well of elution buffer to RNA binding plate 25) Incubate for 2 minutes 26) Seal plate 27) Centrifuge plates 3 minutes at 4000 RPM 28) Discard RNA binding plate 29) Cover microtiter plate for storage in −80 freezer
A series of probes and primers were used to detect the various mRNA transcripts of the genes of ENaCa and GAPDH in mouse, rat, and human cell lines. The assays were performed on an ABI 7500 instrument, according to the manufacturer's instructions. Within each experiment, the baseline was set in the exponential phase of the amplification curve, and based on the intersection point of the baselines with the amplification curve, a Ct value was assigned by the instrument. This Ct value was then assigned a QTY value based on the Standard Curve. The standard curve in the various experiments herein used 1 ng to 300 ng of RNA extracted from the same cell line used for the experimental transfections. […]

Row | Substance | Avg ENaCα Expression | Mean (level of ENaCα expression normalized to the level of GAPDH) | Percent Reduction of the ENaCα mRNA relative to a non-targeting control siNA (NTC) | Avg GAPDH Expression
1 | B cccuGcuGuccAcAGuGAc TTB / GUCAcuGuGGAcAGcAGGGUU (sense CCCUGCUGUCCACAGUGACTT; antisense GUCACUGUGGACAGCAGGGUU; siRNA; sense: DNA at AGT, 2'-fluoro at CU, [invAb] at 5' end, 3' end, backbone not given here; antisense: sugars from the 5' end rrrmffmfmmmfmmfmmmmmm, backbone not given here) [Site 1121] | 72.95 | 1.65 | −6.0% | 46.89
2 | B cuGuGcAAccAGAAcAAAu TTB / AUUuGuucuGGuuGcAcAGUU (chain 1 CUGUGCAACCAGAACAAAUTT; chain 2 AUUUGUUCUGGUUGCACAGUU; siRNA; chain 1: DNA at AGT, 2'-fluoro at CU, [invAb] at 5' end, 3' end, backbone not given here; chain 2: sugars from the 5' end rrrfmffffmmffmfmfmmmm, backbone not given here) [Site 781] | 61.44 | 0.97 | 37.7% | 66.47
3 | B cuccuGuccAAccuGGGcA TTB / UGCccAGGuuGGAcAGGAGUU (sense CUCCUGUCCAACCUGGGCATT; antisense UGCCCAGGUUGGACAGGAGUU; siRNA; sense: DNA at AGT, 2'-fluoro at CU, [invAb] at 5' end, 3' end, backbone not given here; antisense: sugars from the 5' end rrrffmmmffmmmfmmmmmmm, backbone not given here) [Site 1738] | 77.23 | 0.71 | −7.4% | 108.96
4 | B uGGGcAGccAGuGGAGccu TTB / AGGcuccAcuGGcuGcccAUU (sense UGGGCAGCCAGUGGAGCCUTT; antisense AGGCUCCACUGGCUGCCCAUU; siRNA; sense: DNA at AGT, 2'-fluoro at CU, [invAb] at 5' end, 3' end, backbone not given here; antisense: sugars from the 5' end rrrffffmffmmffmfffmmm, backbone not given here) [Site 1751] | 63.35 | 0.49 | 25.4% | 128.83
5 | B uGGcuGuGccuAcAucuuc TTB / GAAGAuGuAGGcAcAGccAUU (sense UGGCUGUGCCUACAUCUUCTT; antisense GAAGAUGUAGGCACAGCCAUU; siRNA; sense: DNA at AGT, 2'-fluoro at CU, [invAb] at 5' end, 3' end, backbone not given here; antisense: sugars from the 5' end rrrmmfmfmmmfmfmmffmmm, backbone not given here) [Site 1386] | 72.05 | 0.64 | 2.8% | 112.63
6 | B uGuGGcuGuGccuAcAucu TTB / AGAuGuAGGcAcAGccAcAUU (sense UGUGGCUGUGCCUACAUCUTT; antisense AGAUGUAGGCACAGCCACAUU; siRNA; sense: DNA at AGT, 2'-fluoro at CU, [invAb] at 5' end, 3' end, backbone not given here; antisense: sugars from the 5' end rrrfmfmmmfmfmmffmfmmm, backbone not given here) [Site 1384] | 82.65 | 0.80 | −21.6% | 103.38
